# Patent publication US9744148B2, “Kallikrein 7 inhibitors” (SIXERA PHARMA AB, priority 2014, dated 2017)
# Target: Active human KLK7 (SCCE) (Homo sapiens (Human), UniProt P49862)
# Assay: KLK7 Inhibitor Test
# Format: biochemical
# Details: substrate MeO-Suc-Arg-Pro-Tyr-pNA, pH 7.2, 37° C., absorbance at 405 nm
# Method: KLK7 Inhibitor Test Substrate:(MeO-Suc-[…]), acetate salt, Peptide international, lot #906841, previously named S-2586 Enzyme: […] Buffer: 10 mM NaPhospate, 0.5 M NaCl, pH 7.2 […] 10 μl of substance in DMSO was added to wells giving final concentrations of 20 μ[…], and 0.15625 μM. 40 μl of active KLK7 (SCCE) (diluted to 12.5 μg/ml in activity buffer) was added all wells except blank to which activity buffer was added. […] The mean value V of each sample was calculated (n=2 for the substances and n=4 for the control). From the values of V the % of total activity was calculated as (Vinhibitor/Vcontrol (no inhibitor))×100. Plotting and calculation was then done in originPro. % of total activity (y) was plotted vs. log [inhibitor] (log x) and a function of dose response y=A1+(A2-A1)/(1+10^((LOG(x0)-x)*p)) where A1=Bottom platue, A2=Top platue, x0=EC50 and p=Hill slope was fitted to the curve. […] The IC50 values were used to identify KLK7 inhibitors according to the invention.
# Sequence of Active human KLK7 (SCCE) (P49862 30-253): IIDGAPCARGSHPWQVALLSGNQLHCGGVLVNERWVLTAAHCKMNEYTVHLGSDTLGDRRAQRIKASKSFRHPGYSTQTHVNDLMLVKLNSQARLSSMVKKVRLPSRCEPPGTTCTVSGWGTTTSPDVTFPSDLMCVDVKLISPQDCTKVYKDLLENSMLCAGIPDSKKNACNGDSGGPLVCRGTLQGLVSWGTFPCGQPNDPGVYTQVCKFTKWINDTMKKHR
row,IC50 [nM],Compound
1,39,"Cc1cc(NC(=O)C(C)OC(=O)Cc2ccc(Cl)cc2)no1 (stereo not shown) [Compound 1, [1-methyl-2-[(5-methylisoxazol-3-yl)amino]-2-oxo-ethyl] 2-(4-chlorophenyl)acetate]"
2,70,CC(OC(=O)Cc1ccc(Cl)cc1)C(=O)Nc1ccc(F)cc1 (stereo not shown) [Compound 2]
3,80,"CCC(OC(=O)Cc1ccc(Cl)cc1)C(=O)Nc1cc(C)on1 (stereo not shown) [Compound 3, 1-[(5-methylisoxazol-3-yl)carbamoyl]propyl 2-(4-chlorophenyl)acetate]"
4,80,"COc1ccc(NC(=O)C(C)OC(=O)Cc2ccc(Cl)cc2)cc1 (stereo not shown) [Compound 4, [2-(4-methoxyanilino)-1-methyl-2-oxo-ethyl] 2-(4-chlorophenyl)acetate]"
5,90,CC(OC(=O)Cc1ccc(Cl)cc1)C(=O)Nc1ccccc1 (stereo not shown) [Compound 5]
6,120,"CCC(OC(=O)Cc1ccc(Cl)cc1)C(=O)Nc1ccc(OC)cc1 (stereo not shown) [Compound 6, 1-[(4-methoxyphenyl)carbamoyl]propyl 2-(4-chlorophenyl)acetate]"
7,130,"COc1ccc(CC(=O)OC(C)C(=O)Nc2cc(C)on2)cc1 (stereo not shown) [Compound 7, [1-methyl-2-[(5-methylisoxazol-3-yl)amino]-2-oxo-ethyl] 2-(4-methoxyphenyl) acetate]"
8,140,"CCC(OC(=O)Cc1ccc(Cl)cc1)C(=O)Nc1ccc(F)cc1 (stereo not shown) [Compound 8, 1-[(4-fluorophenyl)carbamoyl]propyl 2-(4-chlorophenyl)acetate]"
9,150,"CCC(OC(=O)Cc1ccc(Cl)cc1)C(=O)Nc1ccccc1 (stereo not shown) [Compound 9, 1-(phenylcarbamoyl)propyl 2-(4-chlorophenyl)acetate]"
10,150,"CCC(OC(=O)CCC1CCCC1)C(=O)Nc1ccc(OC)cc1 (stereo not shown) [Compound 11, 1-[(4-methoxyphenyl)carbamoyl]propyl 3-cyclopentylpropanoate]"
11,150,"CCC(OC(=O)Cc1ccc(OC)cc1)C(=O)Nc1cc(C)on1 (stereo not shown) [Compound 12, 1-[(5-methylisoxazol-3-yl)carbamoyl]propyl 2-(4-methoxyphenyl) acetate]"
12,170,"COc1ccc(NC(=O)C(OC(=O)Cc2ccc(Cl)cc2)c2ccccc2)cc1 (stereo not shown) [Compound 13, [2-(4-methoxyanilino)-2-oxo-1-phenyl-ethyl] 2-(4-chlorophenyl)acetate]"
13,180,"Cc1cc(NC(=O)C(C)OC(=O)CCC2CCCC2)no1 (stereo not shown) [Compound 14, [1-methyl-2-[(5-methylisoxazol-3-yl)amino]-2-oxo-ethyl] 3-cyclopentylpropanoate]"
14,180,"COc1ccc(CC(=O)OC(C)C(=O)Nc2ccc(OC)cc2)cc1 (stereo not shown) [Compound 15, [2-(4-methoxyanilino)-1-methyl-2-oxo-ethyl] 2-(4-methoxyphenyl)acetate]"
15,190,"CCC(OC(=O)CCC1CCCC1)C(=O)Nc1cc(C)on1 (stereo not shown) [Compound 16, 1-[(5-methylisoxazol-3-yl)carbamoyl]propyl 3-cyclopentylpropanoate]"
16,190,"Cc1cc(NC(=O)C(OC(=O)Cc2ccc(Cl)cc2)c2ccccc2)no1 (stereo not shown) [Compound 17, [2-[(5-methylisoxazol-3-yl)amino]-2-oxo-1-phenyl-ethyl] 2-(4-chlorophenyl)acetate]"
17,220,CCCC(OC(=O)C(c1ccccc1)c1ccccc1)C(=O)Nc1cc(C)on1 (stereo not shown) [Compound 18]
18,230,"COc1ccc(NC(=O)C(OC(=O)CCC2CCCC2)c2ccccc2)cc1 (stereo not shown) [Compound 19, [2-(4-methoxyanilino)-2-oxo-1-phenyl-ethyl] 3-cyclopentylpropanoate]"
19,230,"Cc1cc(NC(=O)C(OC(=O)CCC2CCCC2)c2ccccc2)no1 (stereo not shown) [Compound 20, [2-[(5-methylisoxazol-3-yl)amino]-2-oxo-1-phenyl-ethyl] 3-cyclopentylpropanoate]"
20,260,COc1ccc(CC(=O)OC(C)C(=O)Nc2ccccc2)cc1 (stereo not shown) [Compound 21]
21,260,CC(OC(=O)CCC1CCCC1)C(=O)Nc1ccc(F)cc1 (stereo not shown) [Compound 22]
22,270,"CCC(OC(=O)Cc1ccc(OC)cc1)C(=O)Nc1cc(C)on1 (stereo not shown) [Compound 23, 1-[(5-methylisoxazol-3-yl)carbamoyl]propyl 2-(4-methoxyphenyl)acetate]"
23,280,"CCC(OC(=O)Cc1ccc(OC)cc1)C(=O)Nc1ccc(OC)cc1 (stereo not shown) [Compound 24, 1-[(4-methoxyphenyl)carbamoyl]propyl 2-(4-methoxyphenyl)acetate]"
24,310,"CCC(OC(=O)CCC1CCCC1)C(=O)Nc1ccc(F)cc1 (stereo not shown) [Compound 25, 1-[(4-fluorophenyl)carbamoyl]propyl 3-cyclopentylpropanoate]"
25,320,"CCC(OC(=O)Cc1ccc2c(c1)OCO2)C(=O)Nc1cc(C)on1 (stereo not shown) [Compound 26, 1-[(5-methylisoxazol-3-yl)carbamoyl]propyl 2-(1,3-benzodioxol-5-yl)acetate]"
26,330,CCCCC(OC(=O)C(c1ccccc1)c1ccccc1)C(=O)Nc1cc(C)on1 (stereo not shown) [Compound 27]

row,IC50 [nM],Compound
1,340,CC[C@H](OC(=O)C(c1ccccc1)c1ccccc1)C(=O)Nc1cc(C)on1 [Compound 28]
2,350,O=C(Cc1ccc(Cl)cc1)OC(C(=O)Nc1ccc(F)cc1)c1ccccc1 (stereo not shown) [Compound 29]
3,360,"CCC(OC(=O)Cc1ccc(OC)cc1)C(=O)Nc1ccc(F)cc1 (stereo not shown) [Compound 30, 1-[(4-fluorophenyl)carbamoyl]propyl 2-(4-methoxyphenyl)acetate]"
4,370,"CC(OC(=O)CCC1CCCC1)C(=O)Nc1ccccc1 (stereo not shown) [Compound 31, (2-anilino-1-methyl-2-oxo-ethyl) 3-cyclopentylpropanoate]"
5,380,"O=C(Cc1ccc(Cl)cc1)OC(C(=O)Nc1ccccc1)c1ccccc1 (stereo not shown) [Compound 32, (2-anilino-2-oxo-1-phenyl-ethyl) 2-(4-chlorophenyl)acetate]"
6,390,CCC(OC(=O)C(c1ccccc1)c1ccccc1)C(=O)Nc1cc(C)on1 (stereo not shown) [Compound 33]
7,390,"CCC(OC(=O)Cc1ccc(OC)cc1)C(=O)Nc1ccccc1 (stereo not shown) [Compound 34, 1-(phenylcarbamoyl)propyl 2-(4-methoxyphenyl)acetate]"
8,410,"COc1ccc(CC(=O)OC(C(=O)Nc2ccc(OC)cc2)c2ccccc2)cc1 (stereo not shown) [Compound 35, [2-(4-methoxyanilino)-2-oxo-1-phenyl-ethyl] 2-(4-methoxyphenyl)acetate]"
9,430,"COc1ccc(CC(=O)OC(C(=O)Nc2cc(C)on2)c2ccccc2)cc1 (stereo not shown) [Compound 36, [2-[(5-methylisoxazol-3-yl)amino]-2-oxo-1-phenyl-ethyl] 2-(4-methoxyphenyl)acetate]"
10,460,"O=C(CCC1CCCC1)OC(C(=O)NCc1ccccc1)c1ccccc1 (stereo not shown) [Compound 37, [2-(benzylamino)-2-oxo-1-phenyl-ethyl] 3-cyclopentylpropanoate]"
11,470,COCCC(OC(=O)C(c1ccccc1)c1ccccc1)C(=O)Nc1cc(C)on1 (stereo not shown) [Compound 38]
12,480,"CCC(OC(=O)Cc1ccc(Cl)c(Cl)c1)C(=O)Nc1cc(C)on1 (stereo not shown) [Compound 39, 1-[(5-methylisoxazol-3-yl)carbamoyl]propyl 2-(3,4-dichlorophenyl)acetate]"
13,550,COc1ccc(NC(=O)COC(=O)Cc2ccc(Cl)cc2)cc1 [Compound 40]
14,580,"CCC(OC(=O)Cc1ccc(OC)c(OC)c1)C(=O)Nc1cc(C)on1 (stereo not shown) [Compound 41, 1-[(5-methylisoxazol-3-yl)carbamoyl]propyl 2-(3,4-dimethoxyphenyl)acetate]"
15,590,COc1ccc(CC(=O)OC(C)C(=O)Nc2ccc(F)cc2)cc1 (stereo not shown) [Compound 42]
16,630,"CCC(OC(=O)C(c1ccccc1)c1ccccc1)C(=O)Nc1ccc(OC)cc1 (stereo not shown) [Compound 43, 1-[(4-methoxyphenyl)carbamoyl]propyl 2,2-diphenylacetate]"
17,640,"CCC(OC(=O)C(c1ccccc1)c1ccccc1)C(=O)Nc1ccc(F)cc1 (stereo not shown) [Compound 44, 1-[(4-fluorophenyl)carbamoyl]propyl 2,2-diphenylacetate]"
18,660,CCC(OC(=O)C(NC(=O)c1ccccc1)c1ccccc1)C(=O)Nc1cc(C)on1 (stereo not shown) [Compound 45]
19,690,COc1ccc(NC(=O)COC(=O)CCC2CCCC2)cc1 [Compound 46]
20,740,"Cc1cc(NC(=O)C(C)OC(=O)C(c2ccccc2)c2ccccc2)no1 (stereo not shown) [Compound 47, [1-methyl-2-[(5-methylisoxazol-3-yl)amino]-2-oxo-ethyl] 2,2-diphenylacetate]"
21,760,"CCC(OC(=O)C(c1ccccc1)c1ccccc1)C(=O)Nc1ccccc1 (stereo not shown) [Compound 48, 1-(phenylcarbamoyl)propyl 2,2-diphenylacetate]"
22,780,"Cc1cc(NC(=O)C(OC(=O)C(NC(=O)c2ccccc2)c2ccccc2)c2ccccc2)no1 (stereo not shown) [Compound 49, [2-[(5-methylisoxazol-3-yl)amino]-2-oxo-1-phenyl-ethyl] 2-benzamido-2-phenyl-acetate]"
23,790,O=C(COC(=O)Cc1ccc(Cl)cc1)Nc1ccc(F)cc1 [Compound 50]
24,830,O=C(COC(=O)CCC1CCCC1)Nc1ccc(F)cc1 [Compound 51]
25,950,"Cc1cc(NC(=O)C(C)OC(=O)C(NC(=O)c2ccccc2)c2ccccc2)no1 (stereo not shown) [Compound 52, [1-methyl-2-[(5-methylisoxazol-3-yl)amino]-2-oxo-ethyl] 2-benzamido-2-phenyl-acetate]"
26,1100,CC(OC(=O)C(c1ccccc1)c1ccccc1)C(=O)Nc1ccccc1 (stereo not shown) [Compound 53]
